Where two headings read alike, the source gives them in different places.
Legend:
human T cell = assay: CD73 cellular assay (T cell stimulation assay: CellTiter-Glo proliferation and IFN-γ ELISA); assay type: cell-based; conditions: human T cells, anti-CD3/CD28, AMP + EHNA, 72 hours
Procedure: Day 2, human T cell seeding: (a) washing the coated plate (from Day 1) with sterilized PBS buffer (2×100 uL); (b) re-suspending T cells and adjusting cell density to 0.5×10^6 cells/mL with growth media (X-VIVO 15+1% Pen/strep+1% glutamine), and seeding 100 μL/well (50,000 cells/well) in 96-well plates; (c) diluting CD28 antibody for 8× working concentration (8 μg/mL) with growth media, giving 1 μg/mL of the final concentration, followed by addition of CD28 antibody (25 μL) to cell plate; incubating the plates under 5% CO2 at 37° C. for 60 min; (d) adding compound (25 μL, 8×dilution with growth media) to cell plate, and incubating the plates under 5% CO2 at 37° C. for 60 min; (e) adding AMP (25 μL) and EHNA (25 μL, 8×dilution with growth media) to cell plate; (f) incubating the plates under 5% CO2 at 37° C. for 72 hours.
Day 5, collecting cell growth media and testing cell proliferation: (a) centrifuging the cell plate (1,000 rpm) for 5 min; (b) harvesting 150 μL of the cell culture media from each well to 96 well plate, followed by measurement of IFN-r expression by ELISA test; (c) taking a portion of the cell culture supernatant for cytokine analysis, removing the remaining supernatant, followed by addition of fresh growth media (X-VIVO 15+1% Pen/strep+1% glutamine, 100 μL); (d) adding Celltiter-Glo solution (50 μL) into each well for the measurement of cell proliferation by: (e) incubating the plates at room temperature for 10 min on a shaker; (f) transferring 100 μL solution into 96-well white plate and taking the readout of the Celltiter-Glo data using a TECAN Reader.

[1] = Pharmacokinetic evaluation in ICR mice after intravenous injection; assay type: in vivo; conditions: mouse; ICR male mice, 1.0 mg/kg intravenous, plasma
Procedure: A test compound (1.0 mg/kg) was administered to fasted ICR male mice via intravenous injection, and blood samples were collected at time points of 0.08, 0.25, 0.5, 1, 2, 4, 6, 8 and 24 h after the administration. Plasma sample was separated by centrifugation (8000 rpm) and stored at −80° C. until the sample was analyzed. Concentrations of the test compound in the plasma were determined by HPLC-MS/MS: the plasma was dispensed into appropriate tubes containing internal standard and methanol or acetonitrile. The tubes were mixed vigorously for 3 minutes to achieve deproteinization and then centrifuged at 8000 rpm for 5 minutes. The supernatant was transferred to an autosampler vial, injected into the chromatographic system, and quantified on MS/MS detector. Pharmacokinetic parameters including AUC0-4, Cmax, Tmax, t1/2, MRT, Cl and Vd were calculated using WinNonlin 6.3 software. Table 3 summarizes key PK parameters for test compounds (AUC(0-t): the area under the curve from time 0 to time t; AUC(0-∞): the area under the curve from time 0 to infinity; t1/2: Half-life; CL: clearance; C0: the concentration of drug in blood if the drug molecules enter the circulation and are distributed immediately (i.e., at time 0)).

[2] = target: T1, Recombinant human 5′-nucleotidase (hCD73) (Homo sapiens, UniProt P21589); assay: CD73 enzyme inhibition assay (recombinant hCD73, AMP substrate, phosphate detection); assay type: biochemical; conditions: 37° C. 20 min, absorbance 635 nm
T1 sequence (P21589 27-549): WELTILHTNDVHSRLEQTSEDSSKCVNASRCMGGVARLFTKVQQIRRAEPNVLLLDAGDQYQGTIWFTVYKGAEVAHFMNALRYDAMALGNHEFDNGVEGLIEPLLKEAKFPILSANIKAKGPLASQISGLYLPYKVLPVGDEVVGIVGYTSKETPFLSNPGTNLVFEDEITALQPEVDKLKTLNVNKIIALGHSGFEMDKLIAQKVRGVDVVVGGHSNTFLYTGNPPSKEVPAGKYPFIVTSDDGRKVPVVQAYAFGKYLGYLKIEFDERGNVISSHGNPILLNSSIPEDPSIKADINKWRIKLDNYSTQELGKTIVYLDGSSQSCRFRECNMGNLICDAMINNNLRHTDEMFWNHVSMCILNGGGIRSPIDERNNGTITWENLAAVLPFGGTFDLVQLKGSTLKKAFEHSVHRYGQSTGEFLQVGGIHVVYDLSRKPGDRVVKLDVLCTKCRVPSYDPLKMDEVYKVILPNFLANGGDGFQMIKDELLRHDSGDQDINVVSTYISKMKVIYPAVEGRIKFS
Procedure: Test compound solution preparation: Stock solution of a test compound was prepared in DMSO at 10 mM concentration. A series of preset 10-concentration solutions of a test compound were prepared by diluting the stock solution in 5-fold gradient dilution with DMSO.
Assay buffer (1×): […] Tris, 25 mM NaCl, 1 mM MgCl2, pH 7.5, 0.005% Tween-20 (freshly prepared, and ready for use).
An aliquot of 0.25 μL of compound solution or DMSO (blank control) was added to each test well of a micro well plate. Recombinant human 5′-nucleotidase (hCD73) was diluted to 1 nM in assay buffer; and an aliquot of 25 μL hCD73 (1 nM) solution was added to the corresponding wells of the plate. The contents of the well were well-mixed, and the plate was covered with sealing film, centrifuged at 1000 rpm for 30 sec., followed by incubation at room temperature for 15 min. AMP, the substrate, was diluted to 60 μM concentration in the assay buffer. To each reaction well was added 25 μL of AMP solution. After mixing well, the plate was covered with sealing film, centrifuged at 1000 rpm for 30 sec., and incubated at 37° C. for 20 min. The absorbance signal (end point) was measured on SPARK plate reader at 635 nm (See PiColorLock™ Gold Phosphate Detection System (Abcam) test kit for reference).
The reaction wells containing CD73 enzyme, substrate AMP and DMSO (no compound) were used as positive control, and the reaction wells containing substrate AMP and DMSO but no CD73 enzyme were used as negative control. The percent (%) inhibition at each concentration of compound was calculated based on and relative to the signal in the High and Low control wells contained within each assay plate. The High control wells were considered as 0% inhibition, and the low control wells, which didn't contain any compound but rather DMSO (final concentration=0.5%), as 100% inhibition. IC50 values were obtained using GraphPad Prism software.

[3] = read-out: EC50 CTG (CellTiter-Glo, cell proliferation)
[4] = read-out: EC50 IFN-γ (ELISA, indicator for T-cell activity)

| clearance [1] [mL/min/kg] | IC50 [2] [nM] | Compound | EC50 (human T cell; [3]) [nM] | EC50 (human T cell; [4]) [nM] |
| --- | --- | --- | --- | --- |
| 1.85 | 1.08 | O=P(O)(O)CP(=O)(O)OC[C@H]1O[C@@H](n2cnc3c(N4CCC5(CCCCC5)C4)nc(Cl)nc32)[C@@H](O)C1O (some centres unmarked) [Compound b, reference compound] | 7.53 | 14.2 |
| 2.65 | 0.47 | O=P(O)(O)CP(=O)(O)OC[C@H]1O[C@@H](n2cnc3c(N4CC5(CCc6ccccc65)C4)nc(Cl)nc32)[C@@H](O)C1O (stereo partly drawn) [d-1] | 3.13 | 1.45 |

Source: patent publication US20240024346A1, “CD73 INHIBITORS AND PHARMACEUTICAL USES THEREOF” (RISEN (SUZHOU) PHARMA TECH CO., LTD., priority 2020, published 2024)
